Test results reported in patent publication US20190192517A1, “TREATMENT OF SQUAMOUS CELL CARCINOMAS WITH INHIBITORS OF ERK” (Kura Oncology, Inc., priority 2016, published 2019).
Blank lines part the entries; values can stand above or below the molecule they belong to.

Experiments:
A375 LacZ = test: Models of clinical B-Raf and MEK inhibitor resistance, CellTiter-Glo 72 hours: A375 LacZ; assay type: cell-based; conditions: Homo sapiens, A-375
Protocol: (§1) Example 11: Efficacy studies in models of clinical B-Raf and MEK inhibitor resistance. Human melanoma cell lines were obtained from ATCC or DSMZ (e.g., A375, MM383 BRAF V600E and MM127 NRAS Q61R). A375 cells were engineered to overexpress LacZ, BRAF V600E (BRAF V600E amp), or the NRAS mutant NRAS Q61R. The cell lines were grown to confluency, washed with Tumor Cell Media (DMEM+10% FBS or IMDM+20% FBS), and plated in 90 μL Tumor Cell Media at 5,000-10,000 cells/well. […] Plates were incubated for 72 hours at 37° C. and 5% CO2. A volume of 100 μL of CellTiter-Glo® reagent was added to each well and plates were mixed for 2 minutes on an orbital shaker. The plates were allowed to stand at room temperature for 20 minutes before measuring the luminescent signal of each well.

A375 NRAS Q61R = test: Models of clinical B-Raf and MEK inhibitor resistance, CellTiter-Glo 72 hours: A375 NRAS Q61R; assay type: cell-based; conditions: Homo sapiens, A-375
Protocol: as §1

[1] = system: A375 V600E amp (BRAF V600E amp); test: Models of clinical B-Raf and MEK inhibitor resistance, CellTiter-Glo 72 hours: A375 V600E amp; assay type: cell-based; conditions: Homo sapiens, A-375
Protocol: as §1, with “Human” for “Example 11: Efficacy studies in models of clinical B-Raf and MEK inhibitor resistance. Human”

[2] = system: LU1868 primary human NSCLC tissues; test: Patient-derived xenograft model of squamous NSCLC: LU1868; assay type: in vivo, human (in BALB/C nude mice); conditions: daily and Q2D dosing schedules
Protocol: (§2) Example 1: Efficacy studies in patient-derived xenograft models of squamous NSCLC. Tumor fragments (2-4 mm in diameter) from stock mice inoculated with LU1868 or LU0009 primary human NSCLC tissues were inoculated subcutaneously into BALB/C nude mice. The mice were stratified into groups when the average tumor size reached about 200 mm^3. […] Tumor volumes were measured twice weekly in two dimensions using a caliper, with volume expressed in mm^3 (mean+/−SEM) using the formula […], where a and b are the long and short diameters of the tumor, respectively.
(§3) Responses were classified as “tumor stasis” if tumors grew ≤10% during the dosing period. Many SCC patient-derived xenograft models retain comorbid properties of the original tumors from which they were derived, such as induction of cachexia and spontaneous ulceration, that negatively impact the physiology of the host animal and reduce tolerability to exogenous agents, such as therapeutic drugs. […] Dosing holidays were necessary during periods when the mouse had lost ≥10% of body weight until the weight of the mouse returned to baseline. […] Where TGI was 70-85% and no doses were missed, activity was classified as “borderline”, and any TGI levels below 70% were classified as “resistant”.

[3] = system: LU0009 primary human NSCLC tissues; test: Patient-derived xenograft model of squamous NSCLC: LU0009; assay type: in vivo, human (in BALB/C nude mice); conditions: Q2D or 2QW schedules
Protocol: as §2, §3

[4] = system: ES0191 primary human ESCC tissues; test: Patient-derived xenograft model of ESCC: ES0191; assay type: in vivo, human (in BALB/C nude mice); conditions: weekly schedule
Protocol: (§4) Example 2: Efficacy studies in patient-derived xenograft models of ESCC. The general procedure outline in Example 1 was followed. […] Gene copy number and gene expression were assessed as described in Example 1.

[5] = system: ES0215 primary human ESCC tissues; test: Patient-derived xenograft model of ESCC: ES0215; assay type: in vivo, human (in BALB/C nude mice); conditions: Q2D or QW schedules
Protocol: as §4

[6] = system: HN0635 primary human HNSCC tissues; test: Patient-derived xenograft model of HNSCC: HN0635; assay type: in vivo, human (in BALB/C nude mice); conditions: Q2D or QW schedules
Protocol: (§5) Example 3: Efficacy studies in patient-derived xenograft models of HNSCC. The general procedure outline in Example 1 was followed. […] Gene copy number and gene expression were assessed as described in Example 1.

[7] = system: HN2221 primary human HNSCC tissues; test: Patient-derived xenograft model of HNSCC: HN2221; assay type: in vivo, human (in BALB/C nude mice); conditions: weekly dosing
Protocol: as §5

[8] = system: HN1391 primary human HNSCC tissues; test: Patient-derived xenograft model of HNSCC: HN1391; assay type: in vivo, human (in BALB/C nude mice)
Protocol: Example 5: Efficacy studies in patient-derived xenograft modes of HNSCC. The general procedure outline in Example 1 was followed. […] Dosing was discontinued to observe tumor regrowth, then restarted on the same dosing schedule on day 56. […] This activity was maintained for 25 days on treatment at either 120 mg/kg Q2D or 300 mg/kg QW. When dosing was discontinued, tumor stasis was maintained for 10-20 days, but eventually all of the tumors regrew. Regrowth was allowed to proceed for 2-3 weeks, until some individual tumors exceeded 1600 mm^3, then therapy was restarted. Strikingly, all of the retreated tumors regressed, decreasing in size by 27-66% in the subsequent 35 days.

[9] = system: HN3067 primary human HNSCC tissues; test: Patient-derived xenograft model of HNSCC: HN3067; assay type: in vivo, human (in BALB/C nude mice)
From the text: Example 6: Efficacy studies in patient-derived xenograft models of HNSCC. The general procedure outline in Example 1 was followed. […] Dosing was discontinued to observe tumor regrowth.

[10] = system: HNSCC patient-derived xenograft models exhibiting CCND1 amplification; test: Efficacy studies in patient-derived xenograft models of HNSCC (Example 14); assay type: in vivo, human (in BALB/C nude mice); conditions: 300-350 mg/kg QW PO
From the text: Example 14: Efficacy studies in patient-derived xenograft models of HNSCC. The general procedure outline in Example 1 was followed.

ERK2 enzyme = target: T1, ERK2 enzyme (Homo sapiens, UniProt P28482); test: Inhibition assay of ERK (Z'-LYTE kinase assay, Ser/Thr 3 peptide, 100 μM ATP); assay type: biochemical; conditions: in vitro
T1 construct: purchased Life Technologies
T1 sequence (P28482 whole entry): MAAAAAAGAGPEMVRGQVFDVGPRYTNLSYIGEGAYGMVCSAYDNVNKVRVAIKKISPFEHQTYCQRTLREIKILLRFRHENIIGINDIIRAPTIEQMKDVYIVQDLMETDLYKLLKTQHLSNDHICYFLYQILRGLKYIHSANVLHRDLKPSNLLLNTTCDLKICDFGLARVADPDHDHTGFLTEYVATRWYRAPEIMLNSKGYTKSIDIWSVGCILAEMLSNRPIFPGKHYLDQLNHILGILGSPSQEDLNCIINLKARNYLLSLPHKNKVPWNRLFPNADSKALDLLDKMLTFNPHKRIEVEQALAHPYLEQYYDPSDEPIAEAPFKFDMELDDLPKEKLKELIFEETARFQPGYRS
Protocol: Example 9: Inhibition Assays of ERK. The inhibition of ERK activity by the compounds disclosed herein was determined using the Z′-LYTE kinase assay kit (Life Technologies) with a Ser/Thr 3 peptide substrate (Life Technologies) according to manufacturer's instructions. […] The IC50 values for the compounds were determined with 3-fold serial dilutions in duplicate. The compounds were first diluted in 1:3 dilutions in 100% DMSO at 100× the desired concentration, and then further diluted (1:25) in 20 mM HEPES buffer (Invitrogen) to make 4× solutions prior to adding to the enzyme solution. The final DMSO concentration in the assay was 1%. Final reaction volume was […] in 384-well plates. Kinase reactions were conducted for 1 hour followed by the assay development reaction (1 hour) in a 384 well plate format (20 μL/well).

SMILES: O=C1Nc2cc3[nH]nc(-c4ccncc4)c3cc2CN1Cc1ccccc1 [KO-947]
Tumor response (tumor volume) [2]: tumor regression | Tumor response (tumor volume) [3]: only modest inhibition of tumor growth | Tumor response (tumor volume) [4]: tumor regression was initially seen on a weekly schedule, with some regrowth late in the experiment resulting ultimately in tumor stasis | Tumor response (tumor volume) [5]: only modest inhibition of tumor growth | Animals with tumor regression [6]: 5 of 6 | Tumor response (tumor volume) [7]: only modest inhibition of tumor growth | Tumor response when treatment was initiated ([8]; 120 mg/kg Q2D or 300 mg/kg QW, maintained for 25 days): regression and tumor stasis | Time tumor stasis was maintained after dosing was discontinued ([8]; after 25 days on treatment): 10 to 20 days | Decrease in size of retreated tumors ([8]; therapy restarted on day 56, subsequent 35 days): 27-66% | Tumor response (tumor volume) ([9]; all six animals, 120 mg/kg Q2D or 300 mg/kg QW, 40 days): robust tumor regression | Animals with no evidence of remaining viable tumor ([9]; sixty days after dosing was discontinued): 4 of 6 | Models responsive to treatment [10]: Four out of six

SMILES: Cc1cc(-c2n[nH]c3cc4[nH]c(=O)c([C@H](C)c5ccccc5)cc4cc23)ccn1 [Compound 84]
IC50 (ERK2 enzyme): < 500 nM

SMILES: Cn1ccc(-c2n[nH]c3cc4c(cc23)CN([C@@H]2CCCN(Cc3ccc(F)cc3F)C2)C(=O)N4)c1 [Compound 281]
IC50 (ERK2 enzyme): < 500 nM

SMILES: Cc1cc(-c2n[nH]c3cc4c(cc23)CN([C@@H]2CCCN(Cc3ccc(C)s3)C2)C(=O)N4)ccn1 [Compound 245]
IC50 (ERK2 enzyme): < 500 nM

SMILES: Cc1cc(-c2n[nH]c3cc4c(cc23)CN([C@@H]2CCN(Cc3ccccc3)C2)C(=O)N4)ccn1 [Compound 146]
IC50 (ERK2 enzyme): < 500 nM

SMILES: Cc1cc(-c2n[nH]c3cc4c(cc23)CN(CC2CCCC2)C(=O)N4)ccn1 [Compound 212]
IC50 (ERK2 enzyme): < 500 nM

SMILES: Cc1cc(-c2n[nH]c3cc4c(cc23)CN([C@@H]2CCCN(Cc3csc(C)c3)C2)C(=O)N4)ccn1 [Compound 251]
IC50 (ERK2 enzyme): < 500 nM

SMILES: Cc1cc(-c2n[nH]c3cc4c(cc23)CN([C@@H]2CN(C)C[C@H]2c2ccccc2)C(=O)N4)ccn1 (racemic) [Compound 241]
IC50 (ERK2 enzyme): < 500 nM

Results, then the molecule that gave them:

IC50 (A375 LacZ): 4200 nM | IC50 (A375 NRAS Q61R): > 10000 nM | IC50 [1]: > 10000 nM
SMILES: CCCS(=O)(=O)Nc1ccc(F)c(C(=O)c2c[nH]c3ncc(-c4ccc(Cl)cc4)cc23)c1F [Vemurafenib]

IC50 (A375 LacZ): 7 nM | IC50 (A375 NRAS Q61R): 77 nM | IC50 [1]: 300 nM
SMILES: CC(=O)Nc1cccc(-n2c(=O)n(C3CC3)c(=O)c3c(Nc4ccc(I)cc4F)n(C)c(=O)c(C)c32)c1 [Trametinib]

IC50 (ERK2 enzyme): < 500 nM
SMILES: COc1ncc(-c2n[nH]c3cc4[nH]c(=O)c(C5CCCN(Cc6ccccc6)C5)cc4cc23)cn1 (centres unmarked) [Compound 364]

IC50 (ERK2 enzyme): < 500 nM
SMILES: CC(c1ccccc1)c1cc2cc3c(-c4ccnc(N5CCOCC5)c4)n[nH]c3cc2[nH]c1=O (centres unmarked) [Compound 325]

IC50 (ERK2 enzyme): < 500 nM
SMILES: Cc1ccc(-c2n[nH]c3cc4c(cc23)CN([C@@H]2CCCN(Cc3ccc(F)cc3F)C2)C(=O)N4)cn1 [Compound 284]

IC50 (ERK2 enzyme): < 500 nM
SMILES: Cc1ncc(-c2n[nH]c3cc4c(cc23)CN([C@@H]2CCCN(Cc3ccccc3)C2)C(=O)N4)cn1 [Compound 292]
